The values below are quoted from earlier work in patent US20120058205A1, “COMPOSITIONS AND TREATMENT REGIMES FOR REDUCING INFLAMMATION, END-ORGAN INJURY, AND/OR SYSTEMIC ENDOTOXEMIA” (priority 2009, published 2012).

Structures are written as SMILES.

Broadly, the half-life is how long it takes for the measured level to halve.

One series concerns aldosterone. Particulars: administration to diabetic patients.
For series [1] the following is noted: consistently above; also printed as 500 nmol/L; possible hypercalcemia and hyperphosphatemia.
The conditions of series [2]: animal model; also printed as ≦1,000 nmol/L.

Regarding `CC(=O)S[C@@H]1CC2=CC(=O)CC[C@]2(C)[C@H]2CC[C@@]3(C)[C@@H](CC[C@@]34CCC(=O)O4)[C@H]12` [spironolactone], the “increase of aldosterone levels” value in the series on aldosterone is not below 400%.
For the molecule `C=C1/C(=C\C=C2/CCC[C@]3(C)[C@@H]([C@H](C)CCCC(C)(C)O)CC[C@@H]23)C[C@@H](O)C[C@@H]1O` [1,25(OH)2D, 1,25-dihydroxyvitamin D], the half-life (circulating) was 15 h.
For `C=C1CC[C@H](O)C/C1=C/C=C1\CCC[C@]2(C)[C@@H]([C@H](C)CCCC(C)(C)O)CC[C@@H]12` [25(OH)D, 25-hydroxyvitamin D], under “in vivo”, the circulating half-life was 360 h. Also, in series [1], the “serum concentration considered potentially toxic” value is listed as “above 200 ng/mL”. Also, the “concentrations that demonstrated no toxicity” value in series [2] is listed as not above 400 ng/mL.
